One assay deals with hMPV-GFP. The assay is described as follows: hMPV-GFP viral replication assay. The format is cell-based, human metapneumovirus. The following applies: read-out: hMPV EC50. The procedure:
GFP expressing rgHMPV #3 p3 was generated in Dr. Buchholz's lab (Biacchesi S. et al., J Virol. 2007 June; 81(11): 6057-6067.) and propagated in VERO cells (kidney tissue derived from a normal, adult African green monkey. ATCC Cat #CCL-81) with infection Multiplicity of Infection (MOI) of 0.1. Virus was harvested 4 days after infection by collecting all culture material and freeze-thaw the viral culture in liquid nitrogen twice. To generating virus working stocks, thaw frozen samples in 37° C. water bath then centrifuge at 218 g for 15 min at 4° C. Add 1/10 of 10×SPG (Biological Industries 06-3061-01-5A), mix, aliquot supernatant, and quick-freeze in liquid nitrogen then transfer to −80° C. freezer for storage. Virus titer was determined by performing titration test in 96-well plates and calculate approximate virus titer using GFP event/well data.
Compound plates were prepared by dispensing compounds dissolved in DMSO into wells of 384 well coming 3985 polystyrene flat clear bottom optical imaging microplates (202.5 nL/well) using an ECHO acoustic dispenser. Each compound was tested in a 10-point serial 3-fold dilution (typical final concentrations: 40,300 nM-2 nM). […] Continuous culture of VERO cells were maintained in complete culture media (OptiMEM supplemented with 2 mM GlutaMAX™ and 100 U/ml Penicillin-Streptomycin). To set up the assay, trypsinize VERO cells with 0.25% Trypsin-EDTA until cells dislodge, then re-suspend cells with 1 mL FBS. Spin down cells at 300 g for 5 min and wash cells twice in culture media, then count cells using default parameters on ViCell. Cells were then diluted to 100,000 cells/ml (5,000 cells/50 μl) in complete culture media+TrypLE Select (80 μl/ml). Add hMPV-GFP virus to cells at 125,000 pfu/ml (MOI=1.25). Mix by gentle inversion. 10 μl/well of 100% DMSO was dispensed to CellTiter-Glo (CTG) assay Max_E controls wells. Dispense cells at 50 μl/well using Bravo and 50 μl filtered tips into compound plates. Cover plates with MicroClime lids loaded with 7.5 ml of assay media to minimize evaporation. Lightly shake plate for 10 minutes at room temperature then incubate at 37 degrees C. and 5% CO2 for 48 hrs. Following incubation, distinct, GFP-expressing cells are counted using an Acumen imaging system with appropriate settings. A same-well CTG assay is performed by adding 10 μl/well reconstituted CellTiter-Glo reagent (Promega G7573) and reading plates on PerkinElmer Envision according to manufacturer's instructions. Raw data were loaded and analyzed in ActivityBase. Antiviral IC50 and cytotoxicity CC50 values were determined using a 4 parameter logistic fit based on the Levenberg-Marquardt algorithm. Model: 205-4 Parameter Logistic.

The next assay has as its system RSV-A2-GFP. The assay is described as follows: RSV-A2-GFP viral replication assay. Format: cell-based, Human Respiratory Syncytial Virus. The settings on record: read-out: RSV EC50; Calu-1 cells, RSV-A2-GFP MOI=1.2, 96 hrs, GFP-expressing cells counted. The gist of the method:
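Calu-1 cells in DMEM/2% FBS infected with RSV-A2 expressing GFP between P and M genes (24,000 pfu/ml, MOI=1.2), 10-point 3-fold dilutions (typical final 403 nM-0.02 nM or 40.3 nM-0.002 nM). After 96 h at 37°C, GFP-positive cells imaged; same-well CellTiter-Glo for cytotoxicity. IC50/CC50 by 4-parameter logistic fit.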

[1] abbreviates: VERO cells, hMPV-GFP MOI=1.25, 48 hrs, GFP-expressing cells counted.

The structures appear in SMILES notation. Read-outs that look alike come from different tables or passages of the source. Bounds are passed on as bounds.

Broadly, the EC50 is the midpoint of the concentration-response curve. Consider `Cn1nc(-c2cscn2)cc1C(=O)NCC(C)(O)c1cc(C2(C)CCNC2)cc(-c2ccc(F)cc2)n1` (single isomer, unassigned) [Example 27-B], for which the EC50 in the assay with hMPV-GFP (setting [1]) and in the assay with RSV-A2-GFP was over 0.1 µM each time.
On to `Cn1nc(-c2cscn2)cc1C(=O)NCC(C)(O)c1cc(C2(C)CCNC2)cc(-c2ccc(F)cc2)n1` (single isomer, unassigned) [Example 27-C], for which the EC50 in the assay on hMPV-GFP (setting [1]) was over 0.1 µM; in the assay with RSV-A2-GFP, under 0.01 µM.
In the same order, the values of `Cn1nc(-c2cscn2)cc1C(=O)NCC(C)(O)c1cc(C2(C)CCNC2)cc(-c2ccc(F)cc2)n1` (single isomer, unassigned) [Example 27-D] are over 0.1 µM and under 0.01 µM.
With `Cn1nc(-c2cscn2)cc1C(=O)NCC(C)(O)c1cc2c(c(-c3ccc(F)cc3)n1)OCC2(C)N` (single isomer, unassigned) [Example 28-A], the EC50 was over 0.1 µM in the assay with hMPV-GFP (human metapneumovirus, Vero, 48 h) and under 0.01 µM in the assay with RSV-A2-GFP.
As for `Cn1nc(-c2cscn2)cc1C(=O)NCC(C)(O)c1cc2c(c(-c3ccc(F)cc3)n1)OCC2(C)N` (single isomer, unassigned) [Example 28-B], the results for the EC50 with hMPV-GFP (setting [1]) and with RSV-A2-GFP were over 0.1 µM and 0.01 to 0.1 µM, respectively.
In the same order, the values of `Cn1nc(-c2cscn2)cc1C(=O)NCC(C)(O)c1cc2c(c(-c3ccc(F)cc3)n1)OCC2(C)N` (single isomer, unassigned) [Example 28-C] are over 0.1 µM and over 0.1 µM.
In the same order, the values of `Cn1nc(-c2cscn2)cc1C(=O)NCC(C)(O)c1cc2c(c(-c3ccc(F)cc3)n1)OCC2(C)N` (single isomer, unassigned) [Example 28-D] are over 0.1 µM and 0.01 to 0.1 µM.

For the origin of these results see US20250066323A1, “INHIBITORS OF HUMAN RESPIRATORY SYNCYTIAL VIRUS AND METAPNEUMOVIRUS” (priority 2023, published 2025).
